Test results published in article PMC9814781, “Structure-based design of a dual-warhead covalent inhibitor of FGFR4” (Communications Chemistry, 2022).

Experiments:
[1] = target: JAK3 (Homo sapiens, UniProt P52333); experiment: Kinase selectivity profiling
[2] = target: LCK (Homo sapiens, UniProt P06239); experiment: Kinase selectivity profiling
[3] = target: ACK (Homo sapiens, UniProt Q07912); experiment: Kinase selectivity profiling
[4] = target: EPHA3 (Homo sapiens, UniProt P29320); experiment: Kinase selectivity profiling
Chain of EPHA3 (P29320 21-983): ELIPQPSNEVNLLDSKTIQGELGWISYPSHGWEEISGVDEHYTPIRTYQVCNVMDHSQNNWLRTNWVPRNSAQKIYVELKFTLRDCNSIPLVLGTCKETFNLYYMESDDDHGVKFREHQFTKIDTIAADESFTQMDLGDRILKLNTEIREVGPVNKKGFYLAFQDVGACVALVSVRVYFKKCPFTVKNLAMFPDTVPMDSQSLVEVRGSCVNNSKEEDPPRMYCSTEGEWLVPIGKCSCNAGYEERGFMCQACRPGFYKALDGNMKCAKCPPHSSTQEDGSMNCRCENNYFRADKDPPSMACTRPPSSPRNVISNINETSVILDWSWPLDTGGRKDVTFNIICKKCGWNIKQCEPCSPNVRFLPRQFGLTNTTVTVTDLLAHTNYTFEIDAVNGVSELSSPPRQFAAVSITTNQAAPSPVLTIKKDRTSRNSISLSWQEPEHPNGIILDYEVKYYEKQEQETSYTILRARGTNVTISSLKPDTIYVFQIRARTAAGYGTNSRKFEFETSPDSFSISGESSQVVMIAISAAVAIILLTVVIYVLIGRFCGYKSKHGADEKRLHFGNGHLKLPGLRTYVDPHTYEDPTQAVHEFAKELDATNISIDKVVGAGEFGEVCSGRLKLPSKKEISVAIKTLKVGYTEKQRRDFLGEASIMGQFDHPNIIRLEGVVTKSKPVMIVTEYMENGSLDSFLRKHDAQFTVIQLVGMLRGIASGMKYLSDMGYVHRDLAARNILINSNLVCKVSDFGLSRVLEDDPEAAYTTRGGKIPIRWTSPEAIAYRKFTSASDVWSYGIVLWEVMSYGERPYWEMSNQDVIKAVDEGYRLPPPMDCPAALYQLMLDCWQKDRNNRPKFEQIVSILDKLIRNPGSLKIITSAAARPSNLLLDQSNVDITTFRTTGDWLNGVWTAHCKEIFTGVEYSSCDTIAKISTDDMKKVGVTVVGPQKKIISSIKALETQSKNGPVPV

[5] = target: PAK1 (Homo sapiens, UniProt Q13153); experiment: Kinase selectivity profiling
[6] = target: CLK3 (Homo sapiens, UniProt P49761); experiment: Kinase selectivity profiling
[7] = target: CK1δ (Homo sapiens, UniProt P48730); experiment: Kinase selectivity profiling
[8] = target: PDGFRβ (Homo sapiens, UniProt P09619); experiment: Kinase selectivity profiling
Chain of PDGFRβ (P09619 33-1106): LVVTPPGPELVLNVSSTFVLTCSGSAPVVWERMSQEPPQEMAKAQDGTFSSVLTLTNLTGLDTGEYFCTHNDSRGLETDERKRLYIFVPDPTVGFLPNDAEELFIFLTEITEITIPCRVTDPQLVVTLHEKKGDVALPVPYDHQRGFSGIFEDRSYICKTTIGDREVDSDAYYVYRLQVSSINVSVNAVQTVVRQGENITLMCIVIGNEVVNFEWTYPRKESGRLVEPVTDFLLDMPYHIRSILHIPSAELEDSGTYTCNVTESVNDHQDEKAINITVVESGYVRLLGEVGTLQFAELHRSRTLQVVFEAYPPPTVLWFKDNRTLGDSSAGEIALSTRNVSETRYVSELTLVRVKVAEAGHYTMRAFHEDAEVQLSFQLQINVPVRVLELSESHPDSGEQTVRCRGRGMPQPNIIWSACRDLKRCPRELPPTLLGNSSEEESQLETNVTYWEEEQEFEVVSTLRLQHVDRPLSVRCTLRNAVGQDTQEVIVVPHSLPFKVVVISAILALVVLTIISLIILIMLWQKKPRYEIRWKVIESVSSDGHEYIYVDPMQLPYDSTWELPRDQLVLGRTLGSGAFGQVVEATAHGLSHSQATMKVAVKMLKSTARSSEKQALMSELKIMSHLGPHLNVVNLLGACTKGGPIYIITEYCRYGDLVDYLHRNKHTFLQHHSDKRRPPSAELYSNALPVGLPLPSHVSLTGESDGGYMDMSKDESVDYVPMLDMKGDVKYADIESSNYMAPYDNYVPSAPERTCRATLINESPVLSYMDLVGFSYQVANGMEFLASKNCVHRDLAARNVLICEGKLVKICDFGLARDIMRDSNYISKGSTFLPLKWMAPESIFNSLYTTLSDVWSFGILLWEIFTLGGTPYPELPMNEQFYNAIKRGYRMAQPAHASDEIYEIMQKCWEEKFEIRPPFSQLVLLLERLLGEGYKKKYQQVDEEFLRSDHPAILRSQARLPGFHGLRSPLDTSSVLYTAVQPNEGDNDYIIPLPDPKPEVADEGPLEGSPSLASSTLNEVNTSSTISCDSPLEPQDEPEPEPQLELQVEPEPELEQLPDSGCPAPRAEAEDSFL

[9] = target: AurC (Homo sapiens, UniProt Q9UQB9); experiment: Kinase selectivity profiling
[10] = target: EPHA4 (Homo sapiens, UniProt P54764); experiment: Kinase selectivity profiling
[11] = target: CDK6/CycD1 (Homo sapiens, UniProt Q00534); experiment: Kinase selectivity profiling
[12] = target: TAOK2 (Homo sapiens, UniProt Q9UL54); experiment: Kinase selectivity profiling
[13] = target: PDGFRa (Homo sapiens, UniProt P16234); experiment: Kinase selectivity profiling
[14] = target: CK1ε (Homo sapiens, UniProt P49674); experiment: Kinase selectivity profiling
[15] = target: TGFbR1 (Homo sapiens, UniProt P36897); experiment: Kinase selectivity profiling
[16] = target: KDR (VEGFR2) (Homo sapiens, UniProt P35968); experiment: Kinase selectivity profiling
[17] = target: MET (Homo sapiens, UniProt P08581); experiment: Kinase selectivity profiling
[18] = target: FGFR3 (Homo sapiens, UniProt P22607); experiment: Kinase inhibition assay (ADP-Glo); type: biochemical; set-up: FGFR3 (residues 450–758); 6xHis + PreScission site (N, cleaved yes); made in house; host or cells: Escherichia coli Rosseta
Experimental: Wild-type FGFRs and mutant FGFRs were prepared as previously described[25]–[27]. In brief, the kinase domains of human FGFR1 (residues 456–765), FGFR2 (residues 453–770), FGFR3 (residues 450–758), and FGFR4 (residues 445–753) were cloned into a modified pET28a expression vector and then transfected into Escherichia coli Rosseta cells. The N-terminal of the recombinant proteins were contained a 6xHis tag followed by a PreScission cleavage site for FGFR1, FGFR2, FGFR3, and FGFR4. Site-directed mutagenesis of FGFR4 was generated according to the ClonExpress II One Step Cloning Kit (Vazyme) using the pET28a-FGFR4 plasmid as the template. These mutants were confirmed by DNA sequencing (Tsingke, Changsha, China). For crystallization experiments, the wild-type FGFR4 plasmid was co-expressed with untagged YOPH to obtain non-phosphorylated proteins. The proteins were first purified by Ni-NTA affinity chromatography. […]
All kinase inhibition assays were performed with optimized kinase assay buffer consisting of 40 mM Tris-HCl pH 7.5, 20 mM MgCl2, 20 mM NaCl, 0.1 mg/mL BSA, 1 mM TCEP, and 4% DMSO. […] Fluorescence was measured on a multimode plate reader (Perkin-Elmer) using a chemiluminescence program after the addition of the detection reagent. IC50 values were determined using a three-parameter log [Inhibitor] versus response model in GraphPad Prism software.

[19] = target: IRR (Homo sapiens, UniProt P14616); experiment: Kinase selectivity profiling
[20] = target: CDK7/CycH/MAT1 (Homo sapiens, UniProt P50613); experiment: Kinase selectivity profiling
[21] = target: PAK2 (Homo sapiens, UniProt Q13177); experiment: Kinase selectivity profiling
Chain of PAK2 (Q13177 whole entry): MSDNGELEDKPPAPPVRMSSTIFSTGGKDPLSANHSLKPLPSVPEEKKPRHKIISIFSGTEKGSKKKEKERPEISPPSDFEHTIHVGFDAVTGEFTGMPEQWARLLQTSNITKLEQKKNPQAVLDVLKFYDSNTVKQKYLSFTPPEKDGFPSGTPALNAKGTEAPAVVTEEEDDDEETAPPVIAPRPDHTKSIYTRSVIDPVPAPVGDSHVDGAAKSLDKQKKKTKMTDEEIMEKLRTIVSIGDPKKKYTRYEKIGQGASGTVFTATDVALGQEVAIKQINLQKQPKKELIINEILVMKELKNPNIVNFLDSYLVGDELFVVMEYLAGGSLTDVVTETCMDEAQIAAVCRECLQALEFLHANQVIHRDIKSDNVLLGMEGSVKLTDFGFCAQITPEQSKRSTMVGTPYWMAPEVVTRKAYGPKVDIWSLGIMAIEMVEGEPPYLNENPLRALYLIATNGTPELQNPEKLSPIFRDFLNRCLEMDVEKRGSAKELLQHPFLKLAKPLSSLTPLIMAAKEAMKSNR

[22] = target: RON (Homo sapiens, UniProt Q04912); experiment: Kinase selectivity profiling
[23] = target: PAK3 (Homo sapiens, UniProt O75914); experiment: Kinase selectivity profiling
[24] = target: AKT1 (Homo sapiens, UniProt P31749); experiment: Kinase selectivity profiling
Chain of AKT1 (P31749 whole entry): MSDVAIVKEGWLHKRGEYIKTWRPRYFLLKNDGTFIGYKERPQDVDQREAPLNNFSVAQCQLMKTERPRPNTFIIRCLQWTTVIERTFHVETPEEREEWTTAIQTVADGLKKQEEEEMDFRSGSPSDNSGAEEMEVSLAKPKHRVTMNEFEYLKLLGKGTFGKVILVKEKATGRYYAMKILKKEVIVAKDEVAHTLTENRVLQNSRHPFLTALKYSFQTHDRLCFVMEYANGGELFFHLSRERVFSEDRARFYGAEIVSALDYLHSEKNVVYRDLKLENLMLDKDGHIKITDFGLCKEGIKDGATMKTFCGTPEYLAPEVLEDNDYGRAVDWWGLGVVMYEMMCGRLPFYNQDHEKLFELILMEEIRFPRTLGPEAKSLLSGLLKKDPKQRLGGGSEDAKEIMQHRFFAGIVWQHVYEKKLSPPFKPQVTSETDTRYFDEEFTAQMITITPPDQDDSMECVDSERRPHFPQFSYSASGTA

[25] = target: p70S6K (Homo sapiens, UniProt P23443); experiment: Kinase selectivity profiling
Chain of p70S6K (P23443 whole entry): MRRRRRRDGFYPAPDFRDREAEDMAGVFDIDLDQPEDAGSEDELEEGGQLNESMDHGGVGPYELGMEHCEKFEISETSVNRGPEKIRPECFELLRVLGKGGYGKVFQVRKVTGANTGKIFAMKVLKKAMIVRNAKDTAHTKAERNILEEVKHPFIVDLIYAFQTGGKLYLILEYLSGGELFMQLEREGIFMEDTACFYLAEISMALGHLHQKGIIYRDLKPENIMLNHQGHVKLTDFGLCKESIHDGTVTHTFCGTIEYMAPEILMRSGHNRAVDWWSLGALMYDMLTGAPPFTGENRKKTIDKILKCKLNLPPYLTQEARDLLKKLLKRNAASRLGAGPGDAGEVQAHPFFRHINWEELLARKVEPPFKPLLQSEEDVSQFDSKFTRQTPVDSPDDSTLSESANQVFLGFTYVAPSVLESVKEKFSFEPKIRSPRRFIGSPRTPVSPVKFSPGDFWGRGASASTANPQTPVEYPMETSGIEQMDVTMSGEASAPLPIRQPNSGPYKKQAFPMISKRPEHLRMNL

[26] = target: T1, DYRK4 (Homo sapiens, UniProt Q9NR20); experiment: Kinase selectivity profiling; type: biochemical; settings: DYRK4, 1000 nM
T1 construct: purchased ICE Bioscience
T1 sequence (Q9NR20 whole entry): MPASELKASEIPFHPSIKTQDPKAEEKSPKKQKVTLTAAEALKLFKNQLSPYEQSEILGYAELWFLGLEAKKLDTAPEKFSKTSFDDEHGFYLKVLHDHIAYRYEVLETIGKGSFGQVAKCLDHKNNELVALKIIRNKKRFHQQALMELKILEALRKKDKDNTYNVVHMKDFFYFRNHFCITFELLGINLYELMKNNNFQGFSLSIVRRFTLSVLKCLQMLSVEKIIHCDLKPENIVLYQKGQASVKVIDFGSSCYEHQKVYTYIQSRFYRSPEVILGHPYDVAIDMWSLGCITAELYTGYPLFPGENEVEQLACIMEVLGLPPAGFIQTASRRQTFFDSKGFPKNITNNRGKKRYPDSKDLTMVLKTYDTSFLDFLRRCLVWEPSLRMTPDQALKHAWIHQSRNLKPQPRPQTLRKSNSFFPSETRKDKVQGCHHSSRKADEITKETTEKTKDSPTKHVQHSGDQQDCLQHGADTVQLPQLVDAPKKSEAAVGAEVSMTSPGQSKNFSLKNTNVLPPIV

[27] = target: PLK3 (Homo sapiens, UniProt Q9H4B4); experiment: Kinase selectivity profiling
[28] = target: PIM2 (Homo sapiens, UniProt Q9P1W9); experiment: Kinase selectivity profiling
Chain of PIM2 (Q9P1W9 whole entry): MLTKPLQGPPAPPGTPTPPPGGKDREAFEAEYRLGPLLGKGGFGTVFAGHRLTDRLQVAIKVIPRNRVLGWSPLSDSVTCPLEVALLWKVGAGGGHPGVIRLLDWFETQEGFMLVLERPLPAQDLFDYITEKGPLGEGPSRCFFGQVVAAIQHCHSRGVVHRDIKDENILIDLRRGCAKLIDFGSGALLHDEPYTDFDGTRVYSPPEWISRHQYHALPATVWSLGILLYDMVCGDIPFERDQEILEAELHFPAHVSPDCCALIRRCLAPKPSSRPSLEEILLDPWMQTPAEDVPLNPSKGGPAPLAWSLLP

Chain of LCK (P06239 whole entry): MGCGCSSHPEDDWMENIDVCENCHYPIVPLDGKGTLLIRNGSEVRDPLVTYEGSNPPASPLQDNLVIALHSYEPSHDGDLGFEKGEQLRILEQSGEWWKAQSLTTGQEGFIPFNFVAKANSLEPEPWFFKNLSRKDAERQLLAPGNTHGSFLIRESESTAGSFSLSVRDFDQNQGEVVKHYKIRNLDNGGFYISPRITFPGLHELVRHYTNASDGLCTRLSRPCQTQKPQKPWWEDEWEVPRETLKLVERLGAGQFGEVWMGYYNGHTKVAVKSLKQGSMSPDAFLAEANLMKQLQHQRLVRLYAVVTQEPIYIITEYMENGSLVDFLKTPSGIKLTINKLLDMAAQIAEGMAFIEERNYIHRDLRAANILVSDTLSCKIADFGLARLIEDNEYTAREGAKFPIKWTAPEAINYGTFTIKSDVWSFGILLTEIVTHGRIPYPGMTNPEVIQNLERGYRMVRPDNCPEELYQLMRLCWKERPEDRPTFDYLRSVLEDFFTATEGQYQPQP

C=CC(=O)Nc1ccccc1Nc1ncc2c(n1)N(CCCN1CCN(C(=O)C=C)CC1)C(=O)N(c1cc(OC)cc(OC)c1)C2 [CXF-009]
inhibition at 1 µM [1]: 1.94%
inhibition at 1 µM [2]: -3.46%
inhibition at 1 µM [3]: 4.18%
inhibition at 1 µM [4]: -1.81%
inhibition at 1 µM [5]: 3.22%
inhibition at 1 µM [6]: -0.52%
inhibition at 1 µM [7]: -1.29%
inhibition at 1 µM [8]: -6.88%
inhibition at 1 µM [9]: 2.77%
inhibition at 1 µM [10]: -6.83%
inhibition at 1 µM [11]: -9.58%
inhibition at 1 µM [12]: -3.76%
inhibition at 1 µM [13]: -0.91%
inhibition at 1 µM [14]: -4.6%
inhibition at 1 µM [15]: 1.08%
inhibition at 1 µM [16]: -5.37%
inhibition at 1 µM [17]: 2.65%
IC50 [18]: 977 nM
inhibition at 1 µM [19]: -3.5%
inhibition at 1 µM [20]: 1.27%
inhibition at 1 µM [21]: 3.22%
inhibition at 1 µM [22]: -4.53%
inhibition at 1 µM [23]: 0.97%
inhibition at 1 µM [24]: 3.98%
inhibition at 1 µM [25]: 1.69%
inhibition at 1 µM [26]: 1.84%
inhibition at 1 µM [27]: -1.12%
inhibition at 1 µM [28]: 2.38%
